Laboratory results from PubChem BioAssay AID248 (DTP/NCI, 2004).
Several values for one entry are separate records, joined by “and”; a condition that tells them apart may be missing. Equal entries are not always repeated. Inconclusive results and toxic doses are left out. Cut-off read from the data, not from the text of the source: active = T/C of 150% or more; inactive = T/C below 125%.

System: L1210 leukemia ip in BDF1 mice, survival T/C
Test: NCI In Vivo Anticancer Drug Screen. Data for tumor model L1210 Leukemia (intraperitoneal) in B6D2F1 (BDF1) mice
Conditions: endpoint: mean survival time, higher = longer survival
Summary of the method: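 Antitumor effect is assessed in tumor-bearing animals. Survival in the compound arm is compared with a vehicle-dosed control arm and expressed as their quotient.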

[1] = dose: 100.0 mg/kg/injection, schedule: Q01DX001 (ip), vehicle: carboxymethylcellulose (CMC)
[2] = dose: 200.0 mg/kg/injection, schedule: Q01DX001 (ip), vehicle: carboxymethylcellulose (CMC)
[3] = dose: 400.0 mg/kg/injection, schedule: Q01DX001 (ip), vehicle: carboxymethylcellulose (CMC)
[4] = dose: 100.0 mg/kg/injection, schedule: Q04DX003 (ip), vehicle: Klucel (hydroxypropylcellulose) (HPC)
[5] = dose: 200.0 mg/kg/injection, schedule: Q04DX003 (ip), vehicle: Klucel (hydroxypropylcellulose) (HPC)
[6] = dose: 400.0 mg/kg/injection, schedule: Q04DX003 (ip), vehicle: Klucel (hydroxypropylcellulose) (HPC)
[7] = dose: 100.0 mg/kg/injection, schedule: Q01DX009 (ip), vehicle: Klucel (hydroxypropylcellulose) (HPC)
[8] = dose: 200.0 mg/kg/injection, schedule: Q01DX009 (ip), vehicle: Klucel (hydroxypropylcellulose) (HPC)
[9] = dose: 400.0 mg/kg/injection, schedule: Q01DX009 (ip), vehicle: Klucel (hydroxypropylcellulose) (HPC)
[10] = dose: 100.0 mg/kg/injection, schedule: Q04DX003 (ip), vehicle: saline with Tween-80
[11] = dose: 200.0 mg/kg/injection, schedule: Q04DX003 (ip), vehicle: saline with Tween-80
[12] = dose: 400.0 mg/kg/injection, schedule: Q04DX003 (ip), vehicle: saline with Tween-80
[13] = dose: 100.0 mg/kg/injection, schedule: Q01DX001 (ip), vehicle: saline
[14] = dose: 200.0 mg/kg/injection, schedule: Q01DX001 (ip), vehicle: saline
[15] = dose: 400.0 mg/kg/injection, schedule: Q01DX001 (ip), vehicle: saline
[16] = dose: 100.0 mg/kg/injection, schedule: Q04DX002 (ip), vehicle: saline with Tween-80
[17] = dose: 200.0 mg/kg/injection, schedule: Q04DX002 (ip), vehicle: saline with Tween-80
[18] = dose: 400.0 mg/kg/injection, schedule: Q04DX002 (ip), vehicle: saline with Tween-80
[19] = dose: 100.0 mg/kg/injection, schedule: Q01DX009 (ip), vehicle: saline with Tween-80
[20] = dose: 75.0 mg/kg/injection, schedule: Q04DX003 (ip), vehicle: saline
[21] = dose: 150.0 mg/kg/injection, schedule: Q04DX003 (ip), vehicle: saline
[22] = dose: 50.0 mg/kg/injection, schedule: Q01DX009 (ip), vehicle: saline with Tween-80
[23] = dose: 200.0 mg/kg/injection, schedule: Q01DX009 (ip), vehicle: saline with Tween-80
[24] = dose: 400.0 mg/kg/injection, schedule: Q01DX009 (ip), vehicle: saline with Tween-80

Measured: T/C

Cc1cc(N(CCCl)CCCl)ccc1C=Nc1cc(Br)cc(Br)c1
inactive: [1] 101 % of control | [2] 110 % of control | [3] 108 % of control

COc1cc(/C=C/C(=O)O)cc(Br)c1O
inactive: [4] 104 % of control | [5] 101 % of control | [6] 103 % of control

COc1ccc(C(O)c2cc3ccccc3[nH]2)cc1 (stereo unspecified)
inactive: dose: 100.0 mg/kg/injection, schedule: Q04DX002 (ip), vehicle: Klucel (hydroxypropylcellulose) (HPC) 95 % of control | dose: 200.0 mg/kg/injection, schedule: Q04DX002 (ip), vehicle: Klucel (hydroxypropylcellulose) (HPC) 109 % of control | dose: 400.0 mg/kg/injection, schedule: Q04DX002 (ip), vehicle: Klucel (hydroxypropylcellulose) (HPC) 106 % of control

c1ccc(CN=C(c2ccccc2)c2ccccc2)cc1
inactive: [7] 101 % of control | [4] 104 % of control | [8] 95 % of control | [5] 96 % of control | [9] 106 % of control | [6] 98 % of control

COc1cc(Nc2nc(N)ncc2[N+](=O)[O-])cc(OC)c1OC
inactive: [10] 92 % of control | [11] 87 % of control | [12] 88 % of control

[N-]=[N+]=Nc1ccc(S(N)(=O)=O)cc1
inactive: [13] 99 % of control | [14] 94 % of control | [15] 93 % of control

COc1ccc2c(C)c(Br)sc2c1
inactive: [1] 89 % of control | [2] 94 % of control | [3] 94 % of control

CN(C)C(C#N)c1c[nH]c2ccccc12 (stereo unspecified)
inactive: dose: 12.5 mg/kg/injection, schedule: Q01DX009 (ip), vehicle: Klucel (hydroxypropylcellulose) (HPC) 87 % of control | dose: 12.5 mg/kg/injection, schedule: Q04DX003 (ip), vehicle: Klucel (hydroxypropylcellulose) (HPC) 97 % of control | dose: 25.0 mg/kg/injection, schedule: Q01DX009 (ip), vehicle: Klucel (hydroxypropylcellulose) (HPC) 97 % of control | dose: 25.0 mg/kg/injection, schedule: Q04DX003 (ip), vehicle: Klucel (hydroxypropylcellulose) (HPC) 97 % of control | dose: 50.0 mg/kg/injection, schedule: Q04DX003 (ip), vehicle: Klucel (hydroxypropylcellulose) (HPC) 94 % of control

S=C(NCc1ccco1)Nc1cccc2ccccc12
inactive: dose: 100.0 mg/kg/injection, schedule: Q04DX002 (ip), vehicle: gum acacia 101 % of control | dose: 200.0 mg/kg/injection, schedule: Q04DX002 (ip), vehicle: gum acacia 88 % of control | dose: 400.0 mg/kg/injection, schedule: Q04DX002 (ip), vehicle: gum acacia 98 % of control

c1ccc2c(c1)ccc1cc3ccncc3cc12
inactive: [13] 95 % of control and 98 % of control | [14] 100 % of control and 106 % of control | [15] 96 % of control

CCOC(=O)c1ccc(Nc2sc(C(=O)c3ccc(Br)cc3)c(N)c2C#N)cc1
inactive: [16] 102 % of control | [17] 94 % of control | [18] 88 % of control

CC(=O)Nc1ccc(/C=N\NC(=O)CCCC(=O)N/N=C/c2ccc(NC(C)=O)cc2)cc1
inactive: dose: 50.0 mg/kg/injection, schedule: Q01DX001 (ip), vehicle: saline 104 % of control | [13] 96 % of control | dose: 100.0 mg/kg/injection, schedule: Q01DX009 (ip), vehicle: saline 91 % of control | [14] 92 % of control | [15] 98 % of control | dose: 400.0 mg/kg/injection, schedule: Q01DX009 (ip), vehicle: saline 88 % of control

CCCCCCCCCCCCCCCCCC(=O)N/N=C/CCc1ccccc1
inactive: [19] 87 % of control

CC1CC2CCC1C2O (stereo unspecified)
inactive: dose: 37.5 mg/kg/injection, schedule: Q04DX003 (ip), vehicle: saline 100 % of control | [20] 97 % of control | [21] 90 % of control

COc1ccc(OC)c(CC(C)O)c1 (stereo unspecified)
inactive: [1] 101 % of control | [2] 101 % of control | [3] 98 % of control

CNc1nc(Cl)nc2ccccc12
inactive: [22] 105 % of control | [19] 112 % of control | [23] 102 % of control

O=C1OCC/C1=C\C1CO1 (stereo unspecified)
inactive: dose: 100.0 mg/kg/injection, schedule: Q04DX002 (ip), vehicle: saline 97 % of control | dose: 200.0 mg/kg/injection, schedule: Q04DX002 (ip), vehicle: saline 95 % of control | dose: 400.0 mg/kg/injection, schedule: Q04DX002 (ip), vehicle: saline 101 % of control

O=C(COc1ccc([N+](=O)[O-])cc1)Nc1cccnc1
inactive: [10] 96 % of control | [11] 95 % of control | [12] 96 % of control

CCOC(=O)NC(CCl)NC(=O)OCC
inactive: [13] 95 % of control | [14] 101 % of control | [15] 103 % of control

COC(=O)c1ccccc1NC(=O)C(Br)C(Br)C(=O)O (stereo unspecified)
inactive: [22] 101 % of control | [19] 96 % of control | [23] 117 % of control

Cc1ccc(C(=O)/C=C/c2cccc3ccccc23)cc1
inactive: [19] 102 % of control | [16] 97 % of control | [23] 96 % of control | [17] 97 % of control | [24] 96 % of control | [18] 94 % of control

CCOC(=O)c1ccc(N(CC(=O)CN=[N+]=[N-])S(=O)(=O)c2ccc(C)cc2)cc1
inactive: [19] 96 % of control | [23] 96 % of control | [24] 89 % of control

CCCCCCCCC1=C(CCCCCCC(=O)OC)[14CH2]1
inactive: [20] 100 % of control | [21] 93 % of control | dose: 300.0 mg/kg/injection, schedule: Q04DX003 (ip), vehicle: saline 90 % of control

O=C(Nc1ccc([N+](=O)[O-])cc1)C(Cl)(Cl)Cl
inactive: dose: 50.0 mg/kg/injection, schedule: Q01DX001 (ip), vehicle: Klucel (hydroxypropylcellulose) (HPC) 94 % of control | dose: 100.0 mg/kg/injection, schedule: Q01DX001 (ip), vehicle: Klucel (hydroxypropylcellulose) (HPC) 95 % of control | dose: 200.0 mg/kg/injection, schedule: Q01DX001 (ip), vehicle: Klucel (hydroxypropylcellulose) (HPC) 97 % of control

O=C(Nc1cccc([N+](=O)[O-])c1)c1ccc(Cl)cc1
inactive: dose: 100.0 mg/kg/injection, schedule: Q04DX003 (ip), vehicle: gum acacia 101 % of control | dose: 200.0 mg/kg/injection, schedule: Q04DX003 (ip), vehicle: gum acacia 95 % of control | dose: 400.0 mg/kg/injection, schedule: Q04DX003 (ip), vehicle: gum acacia 101 % of control

O=C1c2ccccc2C(=O)N1CNc1ccccc1S
inactive: [7] 100 % of control | [8] 104 % of control | [9] 109 % of control

CCCCCCCCCCCCCCC1=NCCN1
inactive: dose: 5.0 mg/kg/injection, schedule: Q01DX009 (ip), vehicle: saline 98 % of control | dose: 10.0 mg/kg/injection, schedule: Q01DX001 (ip), vehicle: saline 94 % of control | dose: 10.0 mg/kg/injection, schedule: Q01DX009 (ip), vehicle: saline 104 % of control | dose: 10.0 mg/kg/injection, schedule: Q04DX003 (ip), vehicle: saline 92 % of control | dose: 20.0 mg/kg/injection, schedule: Q01DX001 (ip), vehicle: saline 103 % of control | dose: 20.0 mg/kg/injection, schedule: Q01DX009 (ip), vehicle: saline 106 % of control | dose: 20.0 mg/kg/injection, schedule: Q04DX003 (ip), vehicle: saline 101 % of control | dose: 40.0 mg/kg/injection, schedule: Q01DX001 (ip), vehicle: saline 98 % of control | dose: 40.0 mg/kg/injection, schedule: Q04DX003 (ip), vehicle: saline 92 % of control

CCCP(=S)(CCC)N(C)C
inactive: [10] 101 % of control | [11] 104 % of control

CC(C)(CCC(=O)O)[N+](=O)[O-]
inactive: dose: 50.0 mg/kg/injection, schedule: Q04DX003 (ip), vehicle: saline 106 % of control | dose: 100.0 mg/kg/injection, schedule: Q04DX003 (ip), vehicle: saline 105 % of control | dose: 200.0 mg/kg/injection, schedule: Q04DX003 (ip), vehicle: saline 101 % of control
